{
  "source": "patent US7202218B2",
  "about": "“Oligopeptide antagonist of interleukin-6” (National Taiwan University, priority 2005, dated 2007)",
  "key": {"[1]": {"system": "Mcl-1 protein", "assay": "Western blot of IL-6-induced Mcl-1 protein in C33A cells", "assay_type": "cell-based, human", "conditions": "FIG. 4B", "method": "(§1) 80% confluent C33A cells were starved for 24 hours and then treated with human IL-6 protein (50 ng/mL) in the presence or absence of S1 peptide (50 μmol/L) or S7 peptide (50 μmol/L). Cell lysates were obtained and subjected to SDS-PAGE separation and Western blot analysis using various antibodies for immunoblotting, such as anti-phospho-ERK1/2, anti-phospho-Akt, anti-ERK1/2, and anti-Akt.\nEqual amounts of cell lysates (75 μg) were resolved by SDS-PAGE, transferred to polyvinylidene difluoride membranes, and probed with specific anti-Mcl-1 antibodies as described above. β-actin served as the internal loading control to get the result shown in FIG. 4A."}, "[2]": {"system": "HUVECs", "assay": "Capillary tube-like formation by HUVECs on Matrigel", "assay_type": "cell-based, human", "conditions": "6 hours, FIG. 7", "method": "In vitro Assessment using a growth factor-reduced basement membrane Matrigel matrix was carried out to evaluate capillary tube-like formation. The Matrigel was thawed at 4° C. and mixed to homogeneity. The bottom of 96-well cell culture plates were coated with a thin layer of Matrigel (40 μl) and allow the Matrigel to polymerize at 37° C. for 30 minutes. HUVECs were resuspended in M199 medium containing 1% serum to a density of 2.5×10^4 cells/100 μl, mixed with 100 μl of M199 medium containing 1% serum and 100 μl CM from either C33A/neo or C33A/IL-6 cells treated in various ways, and finally plated onto the Matrigel-coated surface. Six hours later, cells were fixed in 4% paraformaldehyde and stained with 0.1% crystal violet. Three microscopic fields were selected at random and photographed, and the number of tube-like structures per field was determined to get the result shown in FIG. 7."}, "[3]": {"system": "C33A/IL-6 cells", "assay": "Tumor growth inhibition in SCID mice injected with C33A/IL-6 cells", "assay_type": "in vivo", "conditions": "50 mg/kg i.p. every 2 days, FIG. 9", "method": "Six- to 8-week-old female severe combined immunodeficient (SCID) mice were […] with 1×10^6 C33A/neo or C33A/IL-6 cells. Beginning 3 days later, S1 or S7 peptide (50 mg/kg, dissolved in PBS) was injected i.p. every 2 days. Tumor development was followed in measurements of length (L) and width (W)."}, "[4]": {"target": "T1, IL-6Rα in different cell lines (Homo sapiens, UniProt P08887)", "T1 construct": "all membrane-type IL-6Rα-expressing cell lines; endogenous in cells", "T1 sequence (P08887 20-468)": "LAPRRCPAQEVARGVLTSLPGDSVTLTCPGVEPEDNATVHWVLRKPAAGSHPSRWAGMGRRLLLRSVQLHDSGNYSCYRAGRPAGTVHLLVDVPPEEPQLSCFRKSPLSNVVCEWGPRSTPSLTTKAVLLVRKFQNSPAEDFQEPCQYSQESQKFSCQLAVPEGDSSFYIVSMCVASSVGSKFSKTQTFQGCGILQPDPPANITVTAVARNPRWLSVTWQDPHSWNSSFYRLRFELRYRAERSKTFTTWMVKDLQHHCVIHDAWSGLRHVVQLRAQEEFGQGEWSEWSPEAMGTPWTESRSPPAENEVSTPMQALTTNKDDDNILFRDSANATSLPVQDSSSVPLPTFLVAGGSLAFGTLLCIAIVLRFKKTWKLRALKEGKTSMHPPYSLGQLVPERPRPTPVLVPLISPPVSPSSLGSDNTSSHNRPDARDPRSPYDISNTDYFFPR", "assay": "In vitro competition assay of synthetic peptides on cell lines", "assay_type": "cell-based", "conditions": "synthetic peptide; FIG. 3", "method": "The binding affinities to IL-6Rα of the 7 independent peptide sequences of the IR-6Rα-binding clones selected from phage display peptide library (Table 1) were confirmed. The phage clones with the inserted DNA encoding these 7 different peptide sequences (phage S1˜S7) were added into IL-6Rα coated 96-well cell culture plates (10^12 pfu/ml) and incubated with IL-6Rα for 1 hour. IL-6 protein (50 ng/ml, 100 μl) was added to the wells and incubated at room temperature for 2 hours. The plates were thoroughly washed with 0.1% BSA (bovine serum albumin)/PBS (phosphate-buffered saline) buffer (pH 8.5). Finally, biotin-conjugated anti-IL-6 monoclonal antibody, horseradish peroxidase (HRP)-conjugated streptavidin and tetramethyl benzidine (TMB) substrate solution were used to perform the known phage Enzyme-Linked Immunosorbent Assay (ELISA) to determine the L-6 protein bound to the cell plates.\nOligopeptides encoded by the inserted DNA in phages S7 and S1 (labeled as ‘peptide S7’ (SEQ ID NO: 7) or ‘peptide S1’ (SEQ ID NO: 1) hereafter) were produced by the known peptide synthesis method. The binding assay described in Example 1 was carried out, but using peptide S7 or peptide S1 (negative control) instead of phage clones, and using cell lines instead of IL-6Rα to perform competition assay and get the result shown in FIG. 3."}, "[5]": {"system": "IL-6-induced angiogenesis", "assay": "Matrigel plug assay, hemoglobin level", "assay_type": "in vivo", "conditions": "BALB/c nude mice; plugs recovered after 7 days; FIG. 8", "method": "On the other hand, Matrigel plug assay was performed to analyze the inhibiting effect on IL-6-induced angiogenesis of peptide S7. Matrigel (500 μl) containing CM from cells treated in various ways was […] into 4- to 8-week-old female BALB/c nude mice at sites lateral to the abdominal midline. Aforementioned CM was obtained either from vector control cells or from IL-6 overexpressed C33A cells in the presence or absence of peptide S7. The Matrigel plugs were recovered after 7 days of implementation, dissolved in PBS, and incubated at 4° C. overnight. Hemoglobin levels were determined using Drabkin's solution (Sigma Chemical) according to the manufacturer's instructions to get the result shown in FIG. 8."}, "[6]": {"system": "VEGF-A", "assay": "VEGF-A secretion, quantitative sandwich ELISA of conditioned medium", "assay_type": "cell-based", "conditions": "C33A, RPMI 8226 and BCC cells (all three cell lines); 24 hours; FIG. 5", "method": "(§2) C33A cervical cancer cells, RPMI 8226 multiple myeloma cells and basal cell carcinoma (BCC) cells, vectors (negative control) were cultivated respectively in DMEM containing 10% FBS, penicillin (100 units/ml), and streptomycin (100 μg/mL) as well as IL-6 protein. At 90% confluence, culture medium was replaced with serum-free medium. IL-6 containing C33A cells were incubated with S1 or S7 peptide for another 24 hours. Conditioned medium (CM) was collected after centrifugation of cellular debris.\nThe conditioned medium (CM) was concentrated using an Amicon ultracentrifugation device (Millipore). The concentrations of VEGF-A in culture supernatants were determined with quantitative sandwich ELISA assay according to the manufacturer's instruction. Briefly, cell supernatant (50 μl) was incubated with 50 μl of assay diluents for 2 hours at room temperature in a 96-well tissue culture plate coated with monoclonal antibodies against VEGF-A. After five consecutive washes, a conjugate consisting of polyclonal VEGF-A antibodies and HRP was added. The mixture was incubated for 2 hours at room temperature. Following the subsequent addition of a color reagent, absorbance was read at 450 nm using a Thermo-Max microplate reader (Molecular Devices Co., Menlo Park, Calif.)."}, "[7]": {"system": "Ras/MAPK and PI3-K/Akt signaling pathways", "assay": "Western blot of IL-6-induced Akt and ERK1/2 phosphorylation in C33A cells", "assay_type": "cell-based, human", "conditions": "IL-6 50 ng/mL, peptide 50 μmol/L, FIG. 4A", "method": "as §1"}, "[8]": {"system": "HUVECs", "assay": "HUVEC proliferation induced by IL-6-CM, trypan blue exclusion", "assay_type": "cell-based, human", "conditions": "CM from IL-6-overexpressed cells; 24 hours; FIG. 6", "method": "as §2\nHUVECs were plated onto six-well dishes (Falcon, Becton Dickinson) at a concentration of 2.5×10^5 cells per well in M199 medium supplemented with 10% FBS. One day after seeding, HUVECs were stimulated with CM from cells treated in various ways respectively, where the CM was mixed with M199 medium. Twenty-four hours later, the viable cells were counted using a trypan blue exclusion method.\nFor the trypan blue exclusion assay, cells were washed with PBS, trypsinized, and then resuspended in 1 ml PBS. Trypan blue-stained cells were then counted using a modified Neubauer hemocytometer under a phase-contrast light microscope."}},
  "note": "Where no end group is shown, it is not given here.",
  "data": [
    {"substance": "LSLITRL [peptide S7]", "values": [
      {"measurement": "IL-6-induced up-regulation of Mcl-1 protein", "setting": "[1]", "result": "antagonized"},
      {"measurement": "C33A/IL-6-CM induced tube-like cell cord formation", "setting": "[2]", "result": "almost completely inhibited"},
      {"measurement": "IL-6-induced tumor growth", "setting": "[3]", "result": "significantly reduced"},
      {"measurement": "tumor growth inhibition at the end of the experiment", "setting": "[3]; tumor volume", "result": 76, "unit": "%"},
      {"measurement": "antagonism of the binding of IL-6 to IL-6Rα in different cell lines", "setting": "[4]", "result": "antagonize the binding"},
      {"measurement": "hemoglobin induction in Matrigel plugs containing C33A/IL-6-CM", "setting": "[5]", "result": "almost completely inhibited"},
      {"measurement": "IL-6-mediated VEGF-A secretion", "setting": "[6]", "result": "significantly decreased"},
      {"measurement": "inhibition of IL-6-induced phosphorylated Akt level", "setting": "[7]", "result": "significantly inhibited"},
      {"measurement": "inhibition of IL-6-induced phosphorylated ERK1/2 MAPK level", "setting": "[7]", "result": "significantly inhibited"},
      {"measurement": "IL-6-CM induced HUVECs proliferation", "setting": "[8]", "result": "greatly attenuated"}
    ]},
    {"substance": "LSLMPRL [peptide S1, negative control peptide, reference compound]", "values": [
      {"measurement": "inhibition of IL-6-induced phosphorylated Akt level", "setting": "[7]", "result": "not"},
      {"measurement": "inhibition of IL-6-induced phosphorylated ERK1/2 MAPK level", "setting": "[7]", "result": "not"},
      {"measurement": "IL-6-CM induced HUVECs proliferation", "setting": "[8]", "result": "not"}
    ]}
  ]
}
